Data: patent publication US20120270929A1, “MODULATION OF TTC39 EXPRESSION TO INCREASE HDL” (ISIS Pharmaceuticals, Inc., priority 2009, published 2012)
Oligonucleotides are written 5' to 3', each unit as a sugar letter and its base; * is a phosphorothioate linkage, no mark a phosphodiester; rarer units and linkages stand in square brackets, end groups in braces. Plain capitals give the bases only. e = 2'-O-(2-methoxyethyl) (MOE); [5mC] = 5-methylcytosine; d = 2'-deoxy (DNA)

Legend:
murine TTC39C mRNA [1] = experiment: Dose-dependent antisense inhibition of murine TTC39C in mouse primary hepatocytes; assay type: cell-based; conditions: electroporation, ~16 h; for IC50: mouse primary hepatocytes
Protocol: Thirty antisense oligonucleotides were selected from the study described in Example 8 and further tested at various doses in mouse primary hepatocytes. Cells were plated at a density of 30,000 cells per well and transfected using electroporation with 500 nM, 1,000 nM, 2,000 nM, 4,000 nM, and 8,000 nM concentrations of antisense oligonucleotide, as specified in Table 30. After a treatment period of approximately 16 hours, RNA was isolated from the cells and TTC39C mRNA levels were measured by quantitative real-time PCR. Murine primer probe set RTS3266 was used to measure mRNA levels. TTC39C mRNA levels were adjusted according to total RNA content, as measured by RIBOGREEN®. Results are presented as percent inhibition of TTC39C, relative to untreated control cells.

murine TTC39C mRNA [2] = experiment: Antisense inhibition of mouse TTC39C in mouse primary hepatocytes, single dose; assay type: cell-based; conditions: 8,000 nM antisense oligonucleotide, electroporation, approximately 24 hours, TTC39C mRNA by real-time PCR (RTS3266), relative to untreated control cells
Protocol: Antisense oligonucleotides were designed targeting a TTC39C nucleic acid and were tested for their effects on TTC39C mRNA in vitro. Cultured mouse primary hepatocytes at a density of 30,000 cells per well were transfected by electroporation with 8,000 nM antisense oligonucleotide. After a treatment period of approximately 24 hours, RNA was isolated from the cells and TTC39C mRNA levels were measured by quantitative real-time PCR. Mouse primer probe set RTS3266 (forward sequence […], designated herein as SEQ ID NO: 140; reverse sequence […], designated herein as SEQ ID NO: 141; probe sequence […], designated herein as SEQ ID NO: 142). TTC39C mRNA levels were adjusted according to total RNA content, as measured by RIBOGREEN®. Results are presented as percent inhibition of TTC39C, relative to untreated control cells.
The chimeric antisense oligonucleotides targeting TTC39C were designed as 5-10-5 MOE gapmers. The gapmers are 20 nucleotides in length, wherein the central gap segment is comprised of ten 2′-deoxynucleotides and is flanked on both sides (in the 5′ and 3′ directions) by wings comprising five nucleotides each. Each nucleotide in the 5′ wing segment and each nucleotide in the 3′ wing segment has a 2′-MOE modification. The internucleoside linkages throughout each gapmer are phosphorothioate (P═S) linkages. All cytosine residues throughout each gapmer are 5-methylcytosines. “Mouse Target start site” indicates the 5′-most nucleotide to which the gapmer is targeted in the mouse gene sequence.

| Substance | percent inhibition of TTC39C mRNA (murine TTC39C mRNA [1]; 500.0 nM) [%] | percent inhibition of TTC39C mRNA (murine TTC39C mRNA [1]; 1000.0 nM) [%] | percent inhibition of TTC39C mRNA (murine TTC39C mRNA [1]; 2000.0 nM) [%] | percent inhibition of TTC39C mRNA (murine TTC39C mRNA [1]; 4000.0 nM) [%] | percent inhibition of TTC39C mRNA (murine TTC39C mRNA [1]; 8000.0 nM) [%] | IC50 (murine TTC39C mRNA [1]) [nM] | % inhibition (murine TTC39C mRNA [2]) [%] |
| --- | --- | --- | --- | --- | --- | --- | --- |
| ISIS 474516: 5-10-5 MOE gapmer antisense oligonucleotide targeting murine TTC39C (antisense eT*eT*eA*eG*eT*dG*dG*dA*d[5mC]*dT*dA*dT*dG*dA*dT*eT*eT*e[5mC]*eT*eG) | 34 | 61 | 71 | 88 | 95 | 800 | 94 |
| ISIS 474517: 5-10-5 MOE gapmer antisense oligonucleotide targeting murine TTC39C (antisense e[5mC]*e[5mC]*eT*e[5mC]*eG*dA*dA*dT*dG*dT*d[5mC]*dA*dT*d[5mC]*dA*eT*eG*eG*e[5mC]*eG) | 60 | 67 | 89 | 95 | 97 | – | 98 |
| ISIS 474518: 5-10-5 MOE gapmer antisense oligonucleotide targeting murine TTC39C (antisense eG*eT*eA*eG*eT*d[5mC]*dT*dT*dT*dA*dA*dG*dT*d[5mC]*dA*eT*e[5mC]*eG*e[5mC]*eA) | 61 | 73 | 90 | 94 | 96 | – | 96 |
| ISIS 474521: 5-10-5 MOE gapmer antisense oligonucleotide targeting murine TTC39C (antisense eG*eG*e[5mC]*eT*eT*dT*d[5mC]*d[5mC]*dT*dA*dA*dG*dG*dA*dT*e[5mC]*e[5mC]*eA*e[5mC]*e[5mC]) | 46 | 63 | 84 | 92 | 97 | 500 | 97 |
| ISIS 474523: 5-10-5 MOE gapmer antisense oligonucleotide targeting murine TTC39C (antisense eG*eG*eT*e[5mC]*eA*d[5mC]*d[5mC]*d[5mC]*d[5mC]*dT*dT*d[5mC]*dG*dG*d[5mC]*e[5mC]*eA*e[5mC]*eA*eA) | 72 | 80 | 94 | 96 | 97 | – | 98 |
| ISIS 474532: 5-10-5 MOE gapmer antisense oligonucleotide targeting murine TTC39C (antisense eG*eT*eT*eG*eT*dG*d[5mC]*d[5mC]*d[5mC]*d[5mC]*dA*dT*d[5mC]*d[5mC]*dA*e[5mC]*eA*eT*e[5mC]*eA) | 51 | 64 | 84 | 94 | 97 | 400 | 99 |
| ISIS 474535: 5-10-5 MOE gapmer antisense oligonucleotide targeting murine TTC39C (antisense eT*e[5mC]*e[5mC]*eA*e[5mC]*dT*dT*d[5mC]*dA*dT*dG*dG*d[5mC]*dA*dA*eG*e[5mC]*eT*eT*eG) | 18 | 35 | 61 | 83 | 93 | 1500 | 96 |
| ISIS 474538: 5-10-5 MOE gapmer antisense oligonucleotide targeting murine TTC39C (antisense eT*eA*eG*e[5mC]*eA*d[5mC]*dG*d[5mC]*dA*dT*dA*dT*dG*dG*d[5mC]*eG*eG*eG*eA*e[5mC]) | 51 | 58 | 82 | 88 | 92 | 400 | 96 |
| ISIS 474540: 5-10-5 MOE gapmer antisense oligonucleotide targeting murine TTC39C (antisense e[5mC]*e[5mC]*eA*e[5mC]*eT*dG*dG*dG*dA*dG*dT*dT*dT*dA*dT*e[5mC]*eA*e[5mC]*eT*eG) | 43 | 65 | 81 | 92 | 97 | 500 | 98 |
| ISIS 474543: 5-10-5 MOE gapmer antisense oligonucleotide targeting murine TTC39C (antisense e[5mC]*e[5mC]*eA*eG*eG*dT*dG*dG*d[5mC]*dT*dT*dT*dG*dG*d[5mC]*eT*eT*eG*eG*eG) | 77 | 88 | 88 | 88 | 94 | – | 98 |
| ISIS 474589: 5-10-5 MOE gapmer antisense oligonucleotide targeting murine TTC39C (antisense eT*e[5mC]*e[5mC]*eG*eA*dA*dA*dT*d[5mC]*dG*d[5mC]*dT*d[5mC]*dA*dG*e[5mC]*e[5mC]*eT*eG*e[5mC]) | 95 | 96 | 97 | 99 | 100 | – | 100 |
| ISIS 474592: 5-10-5 MOE gapmer antisense oligonucleotide targeting murine TTC39C (antisense eG*eA*eA*eG*e[5mC]*dA*dT*dA*dT*dT*dG*dA*dT*dG*d[5mC]*e[5mC]*eA*eG*e[5mC]*e[5mC]) | 24 | 45 | 71 | 84 | 92 | 1200 | 93 |
| ISIS 474595: 5-10-5 MOE gapmer antisense oligonucleotide targeting murine TTC39C (antisense eG*eT*e[5mC]*eA*eT*d[5mC]*dG*d[5mC]*dA*d[5mC]*dG*d[5mC]*d[5mC]*dA*dA*e[5mC]*eT*eG*e[5mC]*eA) | 80 | 87 | 95 | 98 | 98 | – | 97 |
| ISIS 474596: 5-10-5 MOE gapmer antisense oligonucleotide targeting murine TTC39C (antisense e[5mC]*eG*eA*eT*eT*dA*d[5mC]*dA*d[5mC]*d[5mC]*dA*dG*d[5mC]*d[5mC]*dT*e[5mC]*eT*eT*e[5mC]*eA) | 47 | 65 | 62 | 90 | 96 | 600 | 93 |
